Results on 44 substances are retold here after US11840686B2, “Modulation of prekallikrein (PKK) expression” (Ionis Pharmaceuticals, Inc., priority 2013, dated 2023).

This series relates to human PKK mRNA. Nature of the series: Antisense inhibition of human PKK mRNA in HepaRG cells, 1,000 nM, MOE/deoxy/cEt oligonucleotides (Example 3). The series is classed as cell-based. The essentials: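 HepaRG cells at 20,000 per well electroporated with 1,000 nM 16-mer MOE/cEt/deoxy gapmers (phosphorothioate, 5-methylcytosine). After about 24 h, PKK mRNA measured by qRT-PCR with primer probe set RTS3454, normalized to RIBOGREEN total RNA. Reported as percent inhibition versus untreated cells.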

Setting [1] is: Table 21 experiment, HepaRG cells, electroporation with 1,000 nM antisense oligonucleotide, approx. 24 hours, PKK mRNA by RT-PCR (RTS3454), relative to untreated control cells.
The mark [2] stands for this setting: HepaRG cells, electroporation with 1,000 nM antisense oligonucleotide, approximately 24 hours, primer probe set RTS3454, relative to untreated control cells, experiment of Table 23.
Setting [3] is: Table 27, HepaRG cells, 1,000 nM antisense oligonucleotide, human PKK mRNA.
Where [4] appears, read: Table 28, HepaRG cells, 1,000 nM antisense oligonucleotide, human PKK mRNA.
Setting [5] is: HepaRG cells, 1,000 nM antisense oligonucleotide, Table 29.
[6] abbreviates: HepaRG cells, electroporation with 1,000 nM antisense oligonucleotide, approx. 24 hours, PKK mRNA by RT-PCR (RTS3454), relative to untreated control cells, Table 26 experiment.
Setting [7] is: Table 19, HepaRG cells, electroporation with 1,000 nM antisense oligonucleotide, approximately 24 hours, PKK mRNA by RT-PCR (RTS3454), relative to untreated control cells.
The mark [8] stands for this setting: Table 30, human PKK mRNA, HepaRG cells, 1,000 nM antisense oligonucleotide.
The mark [9] stands for this setting: Table 20, HepaRG cells, electroporation with 1,000 nM antisense oligonucleotide, approximately 24 hours, PKK mRNA by RT-PCR (RTS3454), relative to untreated control cells.
[10] abbreviates: Table 22 experiment, HepaRG cells, electroporation with 1,000 nM antisense oligonucleotide, approx. 24 hours, PKK mRNA by RT-PCR (RTS3454), relative to untreated control cells.
Where [11] appears, read: HepaRG cells, electroporation with 1,000 nM antisense oligonucleotide, approx. 24 hours, PKK mRNA by RT-PCR (RTS3454), relative to untreated control cells, Table 25 experiment.
The mark [12] stands for this setting: PKK mRNA, HepaRG cells, 1,000 nM antisense oligonucleotide, Table 31.

Strand notation (5' to 3'): a small letter for the sugar, then the base; units joined by * are phosphorothioate-linked, units joined directly phosphodiester-linked; [ ] holds rarer units or linkages, { } end groups; capitals alone tell only the bases. e = 2'-O-(2-methoxyethyl) (MOE); k = constrained ethyl (cEt); [5mC] = 5-methylcytosine; d = 2'-deoxy (DNA)

For the substance “547838 (e[5mC]*eT*kT*d[5mC]*dA*dA*dG*dG*dA*dA*dT*dG*dT*k[5mC]*k[5mC]*eA; antisense) [compound 547838]”, the “% inhibition” value under setting [1] was 45%.
“547964 (antisense eG*eG*kT*dT*d[5mC]*dA*dG*dG*dT*dA*dA*dA*dG*kT*kT*e[5mC]) [compound 547964]”: the “% inhibition” value under setting [2] is 0%.
On to “548335 (antisense eT*eA*kG*d[5mC]*dA*dT*d[5mC]*dA*dT*dG*d[5mC]*d[5mC]*dA*k[5mC]*kA*eG) [compound 548335]”, for which, under setting [3], the “% inhibition” value was determined as 51%.
“547790 (antisense eT*eG*kA*dA*dA*dT*dA*dA*dG*dT*dT*dG*d[5mC]*kT*kT*eG) [compound 547790]”: the “% inhibition” value under setting [1] is recorded as 23%.
Still for that read-out and setting: in the case of “547826 (eT*eT*k[5mC]*dG*dA*dT*dG*dT*dA*d[5mC]*dT*dT*dT*kT*kG*eG; antisense) [compound 547826]” it was 31%.
Turning to “548472 (e[5mC]*e[5mC]*k[5mC]*dA*dA*dT*dA*d[5mC]*dA*dG*dG*dG*d[5mC]*k[5mC]*kA*eG; antisense) [compound 548472]”, the “% inhibition” value under setting [4] is recorded as 0%.
In the case of “548553 (antisense e[5mC]*e[5mC]*k[5mC]*dG*dA*dA*dG*dA*dG*dT*d[5mC]*dA*dA*kG*kT*e[5mC]) [compound 548553]”, the “% inhibition” value under setting [5] is listed as 46%.
For “548301 (e[5mC]*e[5mC]*kT*dA*dG*dT*dA*d[5mC]*dA*dA*dA*dG*dT*kG*kG*e[5mC]; antisense) [compound 548301]”, under setting [6], the “% inhibition” value came to 65%.
Regarding “548365 (antisense eT*eG*kT*dA*d[5mC]*dT*d[5mC]*d[5mC]*dA*d[5mC]*d[5mC]*dT*d[5mC]*kA*k[5mC]*eG) [compound 548365]”, the “% inhibition” value under setting [3] turned out to be 55%.
Consider “548081 (e[5mC]*e[5mC]*k[5mC]*d[5mC]*dT*dT*d[5mC]*dT*dT*dT*dA*dT*dA*kG*k[5mC]*e[5mC]; antisense) [compound 548081]”, for which the “% inhibition” value under setting [7] worked out at 64%.
In the case of “547923 (eA*eT*k[5mC]*dT*dG*dG*dA*dG*dT*dG*dA*dG*dA*kA*k[5mC]*e[5mC]; antisense) [compound 547923]”, the “% inhibition” value under setting [2] was 68%.
On to “547809 (eT*e[5mC]*kA*dT*d[5mC]*dT*dG*dG*d[5mC]*dA*dG*dT*dA*kT*kT*eG; antisense) [compound 547809]”, for which the “% inhibition” value under setting [1] is listed as 33%.
Take “548545 (antisense e[5mC]*eT*k[5mC]*dT*dT*d[5mC]*dG*d[5mC]*dA*dT*dG*dG*dA*k[5mC]*kA*e[5mC]) [compound 548545]”: the “% inhibition” value under setting [5] was 46%.
“548433 (antisense eT*eA*kT*d[5mC]*dA*d[5mC]*dT*dG*dT*dA*d[5mC]*d[5mC]*dT*kA*kT*eA) [compound 548433]”: the “% inhibition” value under setting [8] is 33%.
For the substance “548131 (eA*eA*kT*dT*dT*dG*dA*d[5mC]*dT*dT*dG*dA*dA*k[5mC]*kT*e[5mC]; antisense) [compound 548131]”, under setting [7], the “% inhibition” value is on record as 45%.
Take “548353 (antisense e[5mC]*eT*kG*d[5mC]*dT*dG*dG*dT*dT*dG*dA*dG*dA*kA*kT*e[5mC]) [compound 548353]”: the “% inhibition” value under setting [3] was determined as 48%.
In the case of “547841 (antisense e[5mC]*eA*k[5mC]*dA*dT*dT*dG*d[5mC]*dT*dT*d[5mC]*dA*dA*kG*kG*eA) [compound 547841]”, the “% inhibition” value under setting [1] is on record as 42%.
For the substance “547858 (antisense e[5mC]*eT*k[5mC]*dT*d[5mC]*dA*dT*dA*dT*d[5mC]*dA*dA*d[5mC]*kT*k[5mC]*e[5mC]) [compound 547858]”, the “% inhibition” value was determined as 82% under setting [9] and 76% under setting [10].
For “547901 (e[5mC]*eT*kG*dT*dA*d[5mC]*dT*dT*dT*dA*dA*dT*dA*kG*kG*e[5mC]; antisense) [compound 547901]”, in that order: 77% and 85%.
Consider “548079 (e[5mC]*e[5mC]*kT*dT*d[5mC]*dT*dT*dT*dA*dT*dA*dG*d[5mC]*k[5mC]*kA*eG; antisense) [compound 548079]”, for which the “% inhibition” value under setting [7] was determined as 39%.
As to “548041 (eT*eG*kT*dG*dA*dG*dA*dA*dA*dG*dG*dT*dG*kT*kA*eT; antisense) [compound 548041]”, the “% inhibition” value (HepaRG cells, electroporation with 1,000 nM antisense oligonucleotide, approximately 24 hours, primer probe set RTS3454, relative to untreated control cells, experiment of Table 24) is reported as 64%.
Regarding “548502 (antisense eA*eA*kT*dT*d[5mC]*dT*dT*dG*dG*dA*d[5mC]*d[5mC]*dA*kA*kG*eG) [compound 548502]”, under setting [4], the “% inhibition” value is 25%.
With “548288 (eG*eA*kA*dT*dA*dG*d[5mC]*dA*dA*dG*d[5mC]*dT*d[5mC]*k[5mC]*kA*eA; antisense) [compound 548288]”, the “% inhibition” value under setting [6] came to 64%.
For the substance “548176 (eG*eA*kT*d[5mC]*dT*d[5mC]*dA*dG*dT*dT*dG*d[5mC]*dG*kA*k[5mC]*e[5mC]; antisense) [compound 548176]”, under setting [11], the “% inhibition” value is reported as 38%.
Regarding “548140 (e[5mC]*eA*kG*dA*dT*dG*dA*dG*dG*dA*d[5mC]*d[5mC]*d[5mC]*k[5mC]*k[5mC]*e[5mC]; antisense) [compound 548140]”, under setting [7], the “% inhibition” value is listed as 74%.
On to “547887 (e[5mC]*e[5mC]*kG*dG*dT*dA*d[5mC]*dT*d[5mC]*dT*dG*d[5mC]*d[5mC]*kT*kT*eG; antisense) [compound 547887]”, for which, under setting [10], the “% inhibition” value turned out to be 99%.
In the case of “548076 (e[5mC]*eA*k[5mC]*d[5mC]*dT*dT*dT*d[5mC]*dT*d[5mC]*d[5mC]*dT*dT*k[5mC]*kG*eA; antisense) [compound 548076]”, under setting [7], the “% inhibition” value came out at 26%.
Regarding “548687 (antisense eG*eA*kA*dT*d[5mC]*dT*d[5mC]*d[5mC]*d[5mC]*dT*dG*dA*dG*kT*k[5mC]*eA) [compound 548687]”, under setting [12], the “% inhibition” value is given as 20%.
On to “547779 (antisense eA*eT*kT*dG*d[5mC]*dT*dT*d[5mC]*dT*dT*dG*dG*dA*kG*kG*eT) [compound 547779]”, for which the “% inhibition” value under setting [1] was 41%.
Take “548631 (antisense e[5mC]*eT*k[5mC]*dA*d[5mC]*dA*dA*dT*dA*d[5mC]*dT*dG*dA*kG*k[5mC]*e[5mC]) [compound 548631]”: the “% inhibition” value under setting [12] is listed as 55%.
For “548594 (e[5mC]*e[5mC]*k[5mC]*dT*dT*d[5mC]*dT*dA*dA*d[5mC]*d[5mC]*dA*dA*kG*kG*eA; antisense) [compound 548594]”, the “% inhibition” value under setting [5] was 30%.
Take “548522 (antisense eA*eG*kG*dT*dA*dT*dT*dG*dA*d[5mC]*d[5mC]*dG*d[5mC]*k[5mC]*kA*eG) [compound 548522]”: the “% inhibition” value under setting [4] worked out at 55%.
Turning to “548573 (e[5mC]*e[5mC]*kA*dG*dT*d[5mC]*dA*d[5mC]*d[5mC]*dA*d[5mC]*d[5mC]*dA*kT*kT*eG; antisense) [compound 548573]”, the “% inhibition” value under setting [5] is reported as 65%.
Take “548111 (antisense eG*eA*k[5mC]*dT*dG*d[5mC]*dA*dT*d[5mC]*dT*dG*dA*dG*k[5mC]*kT*eT) [compound 548111]”: under setting [7], the “% inhibition” value came out at 53%.
With “548623 (antisense eG*e[5mC]*kT*dG*dT*d[5mC]*dA*d[5mC]*dT*dT*dA*dA*dG*k[5mC]*k[5mC]*eA) [compound 548623]”, the “% inhibition” value under setting [12] was found to be 16%.
As for “548414 (antisense eT*e[5mC]*kT*dA*dA*d[5mC]*dA*dG*dT*dA*dT*d[5mC]*dA*k[5mC]*kT*eG) [compound 548414]”, the “% inhibition” value under setting [8] worked out at 20%.
With “548564 (antisense eT*eT*kG*d[5mC]*dT*dA*d[5mC]*dT*dT*dT*dA*d[5mC]*dA*k[5mC]*k[5mC]*eA) [compound 548564]”, the “% inhibition” value under setting [5] came to 69%.
Consider “548246 (eT*eT*k[5mC]*d[5mC]*dA*dT*dG*d[5mC]*dA*dT*dA*d[5mC]*dT*k[5mC]*kG*e[5mC]; antisense) [compound 548246]”, for which, under setting [6], the “% inhibition” value came out at 46%.
“548686 (antisense eA*e[5mC]*kG*dA*d[5mC]*dA*dA*dT*dG*dG*dG*dA*dT*kT*k[5mC]*eA) [compound 548686]”: the “% inhibition” value under setting [12] was determined as 0%.
For “548190 (eT*eA*kT*dT*d[5mC]*d[5mC]*dA*dT*dG*dA*dA*d[5mC]*dA*kT*k[5mC]*e[5mC]; antisense) [compound 548190]”, the “% inhibition” value under setting [11] was determined as 43%.
With “547910 (eA*e[5mC]*k[5mC]*dA*dA*dT*dT*dT*d[5mC]*dT*dG*dA*dA*kA*kG*eG; antisense) [compound 547910]”, the “% inhibition” value worked out at 26% under setting [9] and 34% under setting [10].
“548350 (antisense eG*e[5mC]*kG*d[5mC]*dT*dA*dA*d[5mC]*d[5mC]*dT*d[5mC]*dA*dT*kA*kA*eA) [compound 548350]”: under setting [3], the “% inhibition” value turned out to be 29%.
As to “548457 (e[5mC]*eT*kA*dT*dA*dA*d[5mC]*dA*dG*dT*dA*dT*d[5mC]*kA*k[5mC]*e[5mC]; antisense) [compound 548457]”, the “% inhibition” value under setting [8] is 13%.
As to “547763 (antisense eG*eG*kT*dG*dA*dG*dT*d[5mC]*dT*d[5mC]*dT*dT*dG*kT*k[5mC]*eA) [compound 547763]”, under setting [1], the “% inhibition” value is on record as 66%.

The term % inhibition denotes the share of the control response that was lost under treatment. Low readings indicate little suppression, high ones strong suppression.
